Consider one compound from US20250002450A1, “CATIONIC STEROID COMPOUNDS, METHOD OF OBTAINING THEREOF, FORMULATIONS COMPRISING THEREOF AND THEIR USES” (UNIVERSIDADE DO PORTO, priority 2021, published 2025).

In one assay the test system is S. aureus ATCC 29213. Description: Bacterial biofilm formation inhibition (crystal violet). The class given is cell-based, Staphylococcus aureus. To be noted: 2×MIC and MIC, 24 h. Here is the method:
(§1) In an embodiment, the antibiofilm activity of compound 1 was performed as follows. Given its bactericidal effect, the impact of compound 1 on the biofilm formation of reference strains was studied.
(§2) The effect of compound 1 on bacterial biofilm formation was evaluated through quantification of total biomass, using the crystal violet method, as previously described ([FIG. 6]). […] A control with an appropriate concentration of DMSO, as well as a negative control (TSB alone) was included. Sterile 96-well flat-bottomed untreated polystyrene microtiter plates were used. After a 24 h incubation at 37 degrees C., the biofilms were heat-fixed for 1 h at 60 degrees C. and stained with 0.5% (v/v) crystal violet (Quimica Clinica Aplicada, Amposta, Spain) for 5 min. The stain was resolubilized with 33% (v/v) acetic acid (Acetic acid 100%, AppliChem, Darmstadt, Germany) and the biofilm biomass was quantified by measuring the absorbance of each sample at 570 nm in a microplate reader (Thermo Scientific Multiskan® EX, Thermo Fisher Scientific, Waltham, MA, USA). The background absorbance (TSB or TSB+1% glucose without inoculum) was subtracted from the absorbance of each sample and the data are presented as a percentage of control. Three independent assays were performed for reference strains, with triplicates for each experimental condition.

In assay [1] the test system is Saprolegnia parasitica CBS 223.65. Description: MIC/MLC broth microdilution in GY broth. Type of assay: cell-based. As for the experimental part:
The antifungal activity of compound 1 was evaluated for a wide range of fungal species, covering yeasts and filamentous fungi, including dermatophytes. […] This antimicrobial effect was fungicidal, with minimal lethal concentrations (MLC) being equal to, or one or two-fold higher than the respective MIC. Twenty-three fungal strains were used in this study, including reference strains and clinical isolates of yeasts and filamentous fungi. Yeast strains included reference strains (ATCC—American Type Culture Collection and CECT—Colección Española de Cultivos Tipo) and clinical isolates: C. albicans ATCC 10231, Candida krusei ATCC 6258, C. albicans H37, C. albicans FF172, C. albicans FF176, C. albicans DSY294, C. albicans DSY296, C. glabrata DSY562, C. glabrata DSY565 and Cryptococcus neoformans CECT 1078. […]
Each well was then inoculated with approximately 1 mm^2 of mycelium. […] After 5-7 days of incubation at 24° C., MIC was recorded as the lowest concentration that prevented obvious mycelial growth in comparison to the compound-free controls. […]
Background: Broth dilution looks for growth in wells or tubes with falling amounts of substance.

Another assay deals with P. aeruginosa ATCC 27853. The experiment in a line: Bacterial biofilm formation inhibition (crystal violet). Type of assay: cell-based, Pseudomonas aeruginosa. As to conditions: 2×MIC and MIC, 24 h. Here is the method: as §1, §2

Each structure is given as a SMILES string.

For `C[C@H](CCC(=O)NCCN)[C@H]1CC[C@H]2[C@@H]3CC[C@@H]4C[C@H](O)CC[C@]4(C)[C@H]3C[C@H](O)[C@]12C` [Compound 1, (R)—N-(2-aminoethyl)-4-((3R,5R,8R,9S,10S,12S,13R,14S,17R)-3,12-dihydroxy-10,13-dimethylhexadecahydro-1H-cyclopenta[a]phenanthren-17-yl) pentanamida], the “biofilm formation (in words)” value in the assay with S. aureus ATCC 29213 is “significantly inhibited”. Also, in assay [1], the MIC (usually the lowest concentration found to suppress growth) lay within 32 to 64 µg/mL and the MLC was in the range of 32 to 64 µg/mL. The “biofilm formation (in words)” value with P. aeruginosa ATCC 27853 is reported as “significantly inhibited”.
